For 18 molecules, IC50 results are on record in patent publication US20190275012A9, “SUBSTITUTED THIAZOLO-PYRIDINE COMPOUNDS AS MALT1 INHIBITORS” (Lupin Limited, priority 2016, published 2019).

In general, pIC50 refers to the IC50 on a negative log10 scale, so that one unit is a factor of ten.

The test system of experiment [1] is NF-kB transcriptional activity in HEK-293-NF-kB-Luc cell line overexpressing MALT1. As to the kind of experiment: NF-kB reporter assay (luciferase, MALT1 stably overexpressed). The class given is cell-based. The conditions noted are these: Homo sapiens, 24 h, HEK-293-NF-kB-Luc cells stably overexpressing MALT1, 24 h treatment, Bright Glo luminescence; read-out: NF-kB inhibition IC50. Summed up:
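HEK-293-NF-κB-Luc cells stably overexpressing MALT1 were seeded overnight, then exposed to test compounds for 24 h. Bright Glo added 10 min at ambient temperature and luminescence read; % inhibition calculated against 0.1% DMSO controls.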
A general note: In a reporter assay the amount or activity of a reporter protein is the signal.

Experiment [2] deals with T1, full length MALT1 enzyme (Homo sapiens, UniProt Q9UDY8).
T1 construct: a fluorescence based assay with full length MALT1 enzyme
T1 sequence (Q9UDY8 1-824): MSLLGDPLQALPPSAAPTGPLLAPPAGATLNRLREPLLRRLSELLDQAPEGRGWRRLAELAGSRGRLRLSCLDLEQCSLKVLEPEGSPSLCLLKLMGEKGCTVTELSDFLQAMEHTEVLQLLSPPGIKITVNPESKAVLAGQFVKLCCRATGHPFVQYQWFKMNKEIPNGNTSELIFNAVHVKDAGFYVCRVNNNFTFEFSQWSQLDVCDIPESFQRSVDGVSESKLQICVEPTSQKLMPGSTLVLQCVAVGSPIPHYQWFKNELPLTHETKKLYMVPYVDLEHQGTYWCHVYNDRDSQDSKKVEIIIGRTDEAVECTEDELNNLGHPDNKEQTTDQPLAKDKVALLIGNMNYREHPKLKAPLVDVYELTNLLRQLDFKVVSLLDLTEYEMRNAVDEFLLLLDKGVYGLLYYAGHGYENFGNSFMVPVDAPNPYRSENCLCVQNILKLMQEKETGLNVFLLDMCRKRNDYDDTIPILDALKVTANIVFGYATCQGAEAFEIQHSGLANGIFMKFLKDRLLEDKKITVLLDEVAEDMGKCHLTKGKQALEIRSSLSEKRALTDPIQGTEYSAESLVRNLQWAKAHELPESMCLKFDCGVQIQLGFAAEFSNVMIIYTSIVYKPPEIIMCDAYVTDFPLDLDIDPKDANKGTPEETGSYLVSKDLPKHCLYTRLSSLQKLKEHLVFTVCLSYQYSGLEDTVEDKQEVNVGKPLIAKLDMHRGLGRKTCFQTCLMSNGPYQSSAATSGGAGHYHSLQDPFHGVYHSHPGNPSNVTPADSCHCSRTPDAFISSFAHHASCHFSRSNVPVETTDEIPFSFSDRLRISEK
As to the kind of experiment: MALT1 biochemical assay (fluorescence based, Ac-Leu-Arg-Ser-Arg-AMC cleavage). The conditions noted are these: full length MALT1 protein, 2 h pre-incubation at RT, tetrapeptide substrate Ac-Leu-Arg-Ser-Arg-AMC, read-out: Malt 1 inhibition IC50. Summed up: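 Full-length MALT1 (100-300 ng/well) was pre-incubated with compound for 2 h at RT, then 100 μM Ac-LRSR-AMC was added for 4-12 h. Buffer was 50 mM MES, 150 mM NaCl, 0.1% CHAPS, 1 M ammonium citrate, 10 mM DTT, pH 7, with 0.5% DMSO. IC50 was derived from AMC fluorescence (ex 360/em 460 nm).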

Experiment [3] deals with OCI-Ly-10 cells. As to the kind of experiment: Anticancer assay (14 days), cell viability by CCK-8. The class given is cell-based. As to conditions: Homo sapiens, OCI-Ly10, 336 h, 14 days treatment, fresh treatment every 5th day, CCK-8 viability, read-out: Ly-10 (14d) inhibition IC50. The procedure: OCI-Ly-10 cells (UHN, Canada) seeded in culture media (IMDM+20% FBS) in 96-well plates were treated with various concentrations of the test compounds. Cells were treated for a period of 14 days (13-15 days depending on the confluency of cells) with fresh treatments every 5th day. After the first treatment, for all subsequent treatments, the cells were centrifuged, the spent media was removed and fresh media containing the test compound was added. Cell viability was assessed using CCK-8 kit (Dojindo Laboratories, China) as per manufacturer's instructions. Plates were read in colorimeter and absorbance was detected. (Detection at 450 nm; Background correction at 650 nm). % inhibition was calculated relative to the samples containing media with 0.1% DMSO alone as per the following formula

pIC50: −log10 of the molar value.

Turning to `COc1ncc(NC(=O)Nc2cnc3sc(C)nc3c2C(C)C)cc1Cl` [Compound 119, 1-(5-Chloro-6-methoxypyridin-3-yl)-3-(7-isopropyl-2-methylthiazolo[5,4-b]pyridin-6-yl)urea], the negative-log IC50 (pIC50) in experiment [1] was 6.30 to 7.00; in experiment [2], 7.30 to 9.00; in experiment [3], 6.30 to 6.60.
Take `Cc1nc2c(C3(CO)CC3)c(NC(=O)Nc3cnc(-n4nccn4)c(C(F)(F)F)c3)cnc2s1` [Compound 223, 1-(6-(2H-1,2,3-Triazol-2-yl)-5-(trifluoromethyl)pyridin-3-yl)-3-(7-(1-(hydroxymethyl)cyclopropyl)-2-methylthiazolo[5,4-b]pyridin-6-yl)urea]: the pIC50 is 7.00 to 9.00 in experiment [1], 7.30 to 9.00 in experiment [2] and 6.30 to 6.60 in experiment [3].
Regarding `CCC(OC)c1c(NC(=O)Nc2ccc(-n3nccn3)c(C(F)(F)F)c2)cnc2sc(C)nc12` (single isomer, unassigned) [Compound 147b, 1-(4-(2H-1,2,3-Triazol-2-yl)-3-(trifluoromethyl)phenyl)-3-(7-(1-methoxypropyl)-2-methylthiazolo[5,4-b]pyridin-6-yl)urea], the negative logarithm of the IC50 (pIC50) in experiment [1] was 7.00 to 9.00; in experiment [2], 7.30 to 9.00; in experiment [3] it was 7.60 to 10.00.
Turning to `COC(C)(c1c(NC(=O)Nc2ccc(-n3nccn3)c(C(F)(F)F)c2)cnc2sc(C)nc12)C1CC1` (single isomer, unassigned) [Compound 94b, 1-(4-(2H-1,2,3-triazol-2-yl)-3-(trifluoromethyl)phenyl)-3-(7-(1-cyclopropyl-1-methoxyethyl)-2-methylthiazolo[5,4-b]pyridin-6-yl)urea], the pIC50 was 7.00 to 9.00 in experiment [1], 7.30 to 9.00 in experiment [2] and 7.00 to 7.59 in experiment [3].
`COC(C)c1c(NC(=O)Nc2ccc(-n3nccn3)c(C(F)(F)F)c2)cnc2sc(C)nc12` (single isomer, unassigned) [Compound 143b, 1-(4-(2H-1,2,3-Triazol-2-yl)-3-(trifluoromethyl)phenyl)-3-(7-(1-methoxyethyl)-2-methylthiazolo[5,4-b]pyridin-6-yl)urea]: the results for the pIC50 in experiment [1], in experiment [2] and in experiment [3] were 7.00 to 9.00, 7.30 to 9.00 and 7.60 to 10.00, respectively.
As for `COc1nc(-n2nccn2)c(Cl)cc1NC(=O)Nc1cnc2sc(C)nc2c1C(OC)C(C)C` (single isomer, unassigned) [Compound 81b, 1-(5-Chloro-2-methoxy-6-(2H-1,2,3-triazol-2-yl)pyridin-3-yl)-3-(7-(1-methoxy-2-methylpropyl)-2-methylthiazolo[5,4-b]pyridin-6-yl)urea], the negative logarithm of the IC50 (pIC50) in experiment [1] is 7.00 to 9.00; in experiment [2] it was 7.30 to 9.00; in experiment [3], 7.00 to 7.59.
For `Cc1nc2c(C(C)C)c(NC(=O)Nc3cnc(-n4nccn4)c(Cl)c3)cnc2s1` [Compound 115, 1-(5-Chloro-6-(2H-1,2,3-triazol-2-yl)pyridin-3-yl)-3-(7-isopropyl-2-methylthiazolo[5,4-b]pyridin-6-yl)urea] the same measures were 7.00 to 9.00, 7.30 to 9.00 and 7.00 to 7.59.
Regarding `COC(C)c1c(NC(=O)Nc2cc(-n3nccn3)cc(C(F)(F)F)c2)cnc2sc(C)nc12` (single isomer, unassigned) [Compound 217b, (S) or (R)-1-(3-(2H-1,2,3-triazol-2-yl)-5-(trifluoromethyl)phenyl)-3-(7-(1-methoxyethyl)-2-methylthiazolo[5,4-b]pyridin-6-yl)urea], the pIC50 in experiment [1] is 7.00 to 9.00; in experiment [2], 7.00 to 7.29; in experiment [3], 6.30 to 6.60.
`Cc1nc2c(C3=CCCCC3)c(NC(=O)Nc3cnc(-n4nccn4)c(Cl)c3)cnc2s1` [Compound 59, 1-(5-Chloro-6-(2H-1,2,3-triazol-2-yl)pyridin-3-yl)-3-(7-(cyclohex-1-en-1-yl)-2-methylthiazolo[5,4-b]pyridin-6-yl)urea]: the pIC50 in experiment [1] was 6.30 to 7.00; in experiment [2], 7.30 to 9.00; in experiment [3] it was 7.00 to 7.59.
For the molecule `COc1ncc(NC(=O)Nc2cnc3sc(C)nc3c2C(C)OC)cc1Cl` (single isomer, unassigned) [Compound 159a, 1-(5-Chloro-6-methoxypyridin-3-yl)-3-(7-(1-methoxyethyl)-2-methylthiazolo[5,4-b]pyridin-6-yl)urea], the values for the negative-log IC50 (pIC50) in experiment [2] and in experiment [3] were 7.30 to 9.00 and 7.00 to 7.59, respectively.
For the molecule `COC(c1c(NC(=O)Nc2cnc(-n3nccn3)c(C(F)(F)F)c2)cnc2sc(C)nc12)C1CC1` (single isomer, unassigned) [Compound 151b, 1-(6-(2H-1,2,3-Triazol-2-yl)-5-(trifluoromethyl)pyridin-3-yl)-3-(7-(cyclopropyl(methoxy)methyl)-2-methylthiazolo[5,4-b]pyridin-6-yl)urea], the negative logarithm of the IC50 (pIC50) in experiment [2] is 7.30 to 9.00; in experiment [3] it was 7.60 to 10.00.
The corresponding values for `COC(C)c1c(NC(=O)Nc2cnc(-n3cccn3)c(Cl)c2)cnc2sc(C)nc12` (single isomer, unassigned) [Compound 196b, (S) or (R)-1-(5-chloro-6-(1H-pyrazol-1-yl)pyridin-3-yl)-3-(7-(1-methoxyethyl)-2-methylthiazolo[5,4-b]pyridin-6-yl)urea] are 7.30 to 9.00 and 7.00 to 7.59.
In the case of `CCC(C)c1c(NC(=O)Nc2cnc(-n3nccn3)c(Cl)c2)cnc2sc(C)nc12` (single isomer, unassigned) [Compound 157b, 1-(7-(sec-Butyl)-2-methylthiazolo[5,4-b]pyridin-6-yl)-3-(5-chloro-6-(2H-1,2,3-triazol-2-yl)pyridin-3-yl)urea], the figures for the pIC50 in experiment [2] and in experiment [3] were 7.30 to 9.00 and 7.00 to 7.59, respectively.
Turning to `COC(c1c(NC(=O)Nc2cnc(-n3nccn3)c(Cl)c2)cnc2sc(C)nc12)C(C)(C)C` (single isomer, unassigned) [Compound 56b, 1-(5-chloro-6-(2H-1,2,3-triazol-2-yl)pyridin-3-yl)-3-(7-(1-methoxy-2,2-dimethylpropyl)-2-methylthiazolo[5,4-b]pyridin-6-yl)urea], the negative logarithm of the IC50 (pIC50) was 7.30 to 9.00 in experiment [2] and 7.00 to 7.59 in experiment [3].
For `COc1cc(-n2nccn2)c(Cl)cc1NC(=O)Nc1cnc2sc(C)nc2c1C(C)OC` (single isomer, unassigned) [Compound 131b, 1-(5-Chloro-2-methoxy-4-(2H-1,2,3-triazol-2-yl)phenyl)-3-(7-(1-methoxyethyl)-2-methylthiazolo[5,4-b]pyridin-6-yl)urea] the same measures were 7.30 to 9.00 and 7.60 to 10.00.
`CCC(OC)c1c(NC(=O)Nc2cnc(-n3nccn3)c(C(F)(F)F)c2)cnc2sc(C)nc12` (single isomer, unassigned) [Compound 146b, 1-(6-(2H-1,2,3-Triazol-2-yl)-5-(trifluoromethyl)pyridin-3-yl)-3-(7-(1-methoxypropyl)-2-methylthiazolo[5,4-b]pyridin-6-yl)urea]: the pIC50 is 7.30 to 9.00 in experiment [2] and 7.60 to 10.00 in experiment [3].
For the molecule `COC(C)c1c(NC(=O)Nc2ccc(-n3cccn3)c(Cl)c2)cnc2sc(C)nc12` (single isomer, unassigned) [Compound 201b, (S) or (R)-1-(3-Chloro-4-(1H-pyrazol-1-yl)phenyl)-3-(7-(1-methoxyethyl)-2-methylthiazolo[5,4-b]pyridin-6-yl)urea], the pIC50 in experiment [2] was 7.30 to 9.00; in experiment [3], 7.00 to 7.59.
Regarding `COc1ccc(Cl)cc1NC(=O)Nc1cnc2sc(C)nc2c1C(C)OC` (single isomer, unassigned) [Compound 128b, 1-(5-Chloro-2-methoxyphenyl)-3-(7-(1-methoxyethyl)-2-methylthiazolo[5,4-b]pyridin-6-yl)urea], the results for the pIC50 in experiment [2] and in experiment [3] were 7.00 to 7.29 and 7.00 to 7.59, respectively.
